Experimental data from patent publication US20260042731A1, “(2,4-DICHLOROPHENOXY)ACETIC ACID ANALOGS” (CORTEVA AGRISCIENCE LLC, priority 2022, published 2026).
Where two headings read alike, the source gives them in different places.

Experiments:
[1] = test system: Chenopodium album (CHEAL), common lambsquarters; experiment: Postemergence herbicide evaluation, growth of Chenopodium album (CHEAL); type: in vivo; conditions: Chenopodium album, post-emergence, read-out: Ave. CHEAL
[2] = test system: Ambrosia artemisiifolia (AMBEL), common ragweed; experiment: Postemergence herbicide evaluation, growth of Ambrosia artemisiifolia (AMBEL); type: in vivo; conditions: Ambrosia artemisiifolia, post-emergence, read-out: AVE. AMBEL
[3] = test system: glyphosate resistant Conyza canadensis (L.) (ERICA), horseweed; experiment: Postemergence herbicide evaluation, growth of Conyza canadensis (ERICA); type: in vivo; conditions: Erigeron canadensis, post-emergence, read-out: Ave. ERICA
[4] = Volatility of compounds measured by thermogravimetric analysis (TGA); type: physicochemical
[5] = test system: weeds (ABUTH, AMATA, AMBEL, CHEAL, ERICA); experiment: Postemergence herbicide evaluation, overall average % weed control across ABUTH, AMATA, AMBEL, CHEAL, ERICA; type: in vivo; conditions: post-emergence, read-out: Overall Ave % Weed Control
[6] = test system: Abutilon theophrasti (ABUTH), velvetleaf; experiment: Postemergence herbicide evaluation, growth of Abutilon theophrasti (ABUTH); type: in vivo; conditions: Abutilon theophrasti, post-emergence, read-out: AVE. ABUTH
[7] = test system: Amaranthus rudis (AMATA), tall water hemp; experiment: Postemergence herbicide evaluation, growth of Amaranthus rudis (AMATA); type: in vivo; conditions: Amaranthus tuberculatus, post-emergence, read-out: Ave. AMATA
[8] = 168 h, 280 g ae/ha, 7 DAA, percent reduction in plant size relative to untreated control
[9] = 168 h, 560 g ae/ha, 7 DAA, percent reduction in plant size relative to untreated control
[10] = 336 h, 280 g ae/ha, 14 DAA, percent reduction in plant size relative to untreated control
[11] = 336 h, 560 g ae/ha, 14 DAA, percent reduction in plant size relative to untreated control
[12] = 504 h, 280 g ae/ha, 21 DAA, percent reduction in plant size relative to untreated control
[13] = 504 h, 560 g ae/ha, 21 DAA, percent reduction in plant size relative to untreated control
[14] = 168 h, 280 g ae/ha, 7 DAA, average over the five weeds
[15] = 168 h, 560 g ae/ha, 7 DAA, average over the five weeds
[16] = 336 h, 280 g ae/ha, 14 DAA, average over the five weeds
[17] = 336 h, 560 g ae/ha, 14 DAA, average over the five weeds
[18] = 504 h, 280 g ae/ha, 21 DAA, average over the five weeds
[19] = 504 h, 560 g ae/ha, 21 DAA, average over the five weeds

SMILES: O=C(COc1ccc(Cl)cc1Cl)O/N=C/c1ccc(/C=N/OC(=O)COc2ccc(Cl)cc2Cl)cc1 [Compound B3, (1,1′)-4-(-((2-(2,4-Dichlorophenoxy)acetoxy)imino)methyl)benzaldehyde-O-(2-(2,4-dichlorophenoxy)acetyl) oxime]
- pest or weed control at 280 g/ha [1, 8]: 65%
- pest or weed control at 560 g/ha [1, 9]: 68%
- pest or weed control at 280 g/ha [1, 10]: 68%
- pest or weed control at 560 g/ha [1, 11]: 70%
- pest or weed control at 280 g/ha [1, 12]: 68%
- pest or weed control at 560 g/ha [1, 13]: 70%
- pest or weed control at 280 g/ha [2, 8]: 23%
- pest or weed control at 560 g/ha [2, 9]: 48%
- pest or weed control at 280 g/ha [2, 10]: 45%
- pest or weed control at 560 g/ha [2, 11]: 50%
- pest or weed control at 280 g/ha [2, 12]: 45%
- pest or weed control at 560 g/ha [2, 13]: 53%
- pest or weed control at 280 g/ha [3, 8]: 55%
- pest or weed control at 560 g/ha [3, 9]: 65%
- pest or weed control at 280 g/ha [3, 10]: 78%
- pest or weed control at 560 g/ha [3, 11]: 80%
- pest or weed control at 280 g/ha [3, 12]: 85%
- pest or weed control at 560 g/ha [3, 13]: 80%
- TGA Data (rate of weight loss, volatility) [4]: 0.8 µg/min
- pest or weed control at 280 g/ha [5, 14]: 47%
- pest or weed control at 560 g/ha [5, 15]: 62%
- pest or weed control at 280 g/ha [5, 16]: 52%
- pest or weed control at 560 g/ha [5, 17]: 65%
- pest or weed control at 280 g/ha [5, 18]: 53%
- pest or weed control at 560 g/ha [5, 19]: 66%
- pest or weed control at 280 g/ha [6, 8]: 33%
- pest or weed control at 560 g/ha [6, 9]: 60%
- pest or weed control at 280 g/ha [6, 10]: 13%
- pest or weed control at 560 g/ha [6, 11]: 58%
- pest or weed control at 280 g/ha [6, 12]: 12%
- pest or weed control at 560 g/ha [6, 13]: 58%
- pest or weed control at 280 g/ha [7, 8]: 60%
- pest or weed control at 560 g/ha [7, 9]: 70%
- pest or weed control at 280 g/ha [7, 10]: 58%
- pest or weed control at 560 g/ha [7, 11]: 68%
- pest or weed control at 280 g/ha [7, 12]: 58%
- pest or weed control at 560 g/ha [7, 13]: 68%

SMILES: N#C/C(=N\OC(=O)COc1ccc(Cl)cc1Cl)c1ccccc1 [Compound A6, N-(2-(2,4-Dichlorophenoxy)acetoxy)benzimidoyl cyanide]
- pest or weed control at 280 g/ha ([1]; 168 h): 68%
- pest or weed control at 560 g/ha ([1]; 168 h): 68%
- pest or weed control at 280 g/ha ([1]; 336 h): 83%
- pest or weed control at 560 g/ha ([1]; 336 h): 78%
- pest or weed control at 280 g/ha ([1]; 504 h): 94%
- pest or weed control at 560 g/ha ([1]; 504 h): 73%
- pest or weed control at 280 g/ha ([2]; 168 h): 68%
- pest or weed control at 560 g/ha ([2]; 168 h): 70%
- pest or weed control at 280 g/ha ([2]; 336 h): 93%
- pest or weed control at 560 g/ha ([2]; 336 h): 95%
- pest or weed control at 280 g/ha ([2]; 504 h): 98%
- pest or weed control at 560 g/ha ([2]; 504 h): 100%
- pest or weed control at 280 g/ha ([3]; 168 h): 65%
- pest or weed control at 560 g/ha ([3]; 168 h): 73%
- pest or weed control at 280 g/ha ([3]; 336 h): 88%
- pest or weed control at 560 g/ha ([3]; 336 h): 88%
- pest or weed control at 280 g/ha ([3]; 504 h): 98%
- pest or weed control at 560 g/ha ([3]; 504 h): 98%
- TGA Data (rate of weight loss, volatility) [4]: 7.2 µg/min
- pest or weed control at 280 g/ha ([5]; 168 h): 72%
- pest or weed control at 560 g/ha ([5]; 168 h): 75%
- pest or weed control at 280 g/ha ([5]; 336 h): 84%
- pest or weed control at 560 g/ha ([5]; 336 h): 84%
- pest or weed control at 280 g/ha ([5]; 504 h): 88%
- pest or weed control at 560 g/ha ([5]; 504 h): 89%
- pest or weed control at 280 g/ha ([6]; 168 h): 78%
- pest or weed control at 560 g/ha ([6]; 168 h): 90%
- pest or weed control at 280 g/ha ([6]; 336 h): 75%
- pest or weed control at 560 g/ha ([6]; 336 h): 85%
- pest or weed control at 280 g/ha ([6]; 504 h): 80%
- pest or weed control at 560 g/ha ([6]; 504 h): 94%
- pest or weed control at 280 g/ha ([7]; 168 h): 80%
- pest or weed control at 560 g/ha ([7]; 168 h): 75%
- pest or weed control at 280 g/ha ([7]; 336 h): 83%
- pest or weed control at 560 g/ha ([7]; 336 h): 78%
- pest or weed control at 280 g/ha ([7]; 504 h): 73%
- pest or weed control at 560 g/ha ([7]; 504 h): 81%

SMILES: O=C(COc1ccc(Cl)cc1Cl)NOc1ccccc1 [Compound D7]
- pest or weed control at 280 g/ha [1, 8]: 65%
- pest or weed control at 560 g/ha [1, 9]: 68%
- pest or weed control at 280 g/ha [1, 10]: 70%
- pest or weed control at 560 g/ha [1, 11]: 75%
- pest or weed control at 280 g/ha [1, 12]: 70%
- pest or weed control at 560 g/ha [1, 13]: 78%
- pest or weed control at 280 g/ha [2, 8]: 63%
- pest or weed control at 560 g/ha [2, 9]: 73%
- pest or weed control at 280 g/ha [2, 10]: 83%
- pest or weed control at 560 g/ha [2, 11]: 89%
- pest or weed control at 280 g/ha [2, 12]: 95%
- pest or weed control at 560 g/ha [2, 13]: 97%
- pest or weed control at 280 g/ha [3, 8]: 63%
- pest or weed control at 560 g/ha [3, 9]: 63%
- pest or weed control at 280 g/ha [3, 10]: 83%
- pest or weed control at 560 g/ha [3, 11]: 85%
- pest or weed control at 280 g/ha [3, 12]: 95%
- pest or weed control at 560 g/ha [3, 13]: 95%
- TGA Data (rate of weight loss, volatility) [4]: 0.2 µg/min
- pest or weed control at 280 g/ha [5, 14]: 66%
- pest or weed control at 560 g/ha [5, 15]: 73%
- pest or weed control at 280 g/ha [5, 16]: 77%
- pest or weed control at 560 g/ha [5, 17]: 85%
- pest or weed control at 280 g/ha [5, 18]: 82%
- pest or weed control at 560 g/ha [5, 19]: 89%
- pest or weed control at 280 g/ha [6, 8]: 68%
- pest or weed control at 560 g/ha [6, 9]: 80%
- pest or weed control at 280 g/ha [6, 10]: 68%
- pest or weed control at 560 g/ha [6, 11]: 85%
- pest or weed control at 280 g/ha [6, 12]: 70%
- pest or weed control at 560 g/ha [6, 13]: 92%
- pest or weed control at 280 g/ha [7, 8]: 73%
- pest or weed control at 560 g/ha [7, 9]: 80%
- pest or weed control at 280 g/ha [7, 10]: 83%
- pest or weed control at 560 g/ha [7, 11]: 90%
- pest or weed control at 280 g/ha [7, 12]: 83%
- pest or weed control at 560 g/ha [7, 13]: 83%
